According to PubChem BioAssay AID248 (DTP/NCI, 2004):
“And” between values parts separate entries of the source, which are not always exact repeats. Identical values can stand only once. Toxic doses and inconclusive results are not listed. Cut-off read from the data, not from the text of the source: active = T/C of 150% or more; inactive = T/C below 125%.

System: L1210 leukemia ip in BDF1 mice, survival T/C
Experiment: NCI In Vivo Anticancer Drug Screen. Data for tumor model L1210 Leukemia (intraperitoneal) in B6D2F1 (BDF1) mice
Conditions: endpoint: mean survival time, higher = longer survival
Method in brief: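 Transplanted-tumor mice were given test agent; controls received vehicle only. Survival readings from the two groups were divided (treated over control).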

[1] = dose: 75.0 mg/kg/injection, schedule: Q01DX001 (ip), vehicle: saline
[2] = dose: 100.0 mg/kg/injection, schedule: Q04DX002 (ip), vehicle: saline
[3] = dose: 50.0 mg/kg/injection, schedule: Q01DX009 (ip), vehicle: Klucel (hydroxypropylcellulose) (HPC)
[4] = dose: 100.0 mg/kg/injection, schedule: Q01DX009 (ip), vehicle: Klucel (hydroxypropylcellulose) (HPC)
[5] = dose: 100.0 mg/kg/injection, schedule: Q04DX003 (ip), vehicle: Klucel (hydroxypropylcellulose) (HPC)
[6] = dose: 200.0 mg/kg/injection, schedule: Q01DX009 (ip), vehicle: Klucel (hydroxypropylcellulose) (HPC)
[7] = dose: 200.0 mg/kg/injection, schedule: Q04DX003 (ip), vehicle: Klucel (hydroxypropylcellulose) (HPC)
[8] = dose: 100.0 mg/kg/injection, schedule: Q01DX009 (ip), vehicle: saline
[9] = dose: 200.0 mg/kg/injection, schedule: Q01DX009 (ip), vehicle: saline
[10] = dose: 400.0 mg/kg/injection, schedule: Q01DX009 (ip), vehicle: saline
[11] = dose: 3.13 mg/kg/injection, schedule: Q01DX009 (ip), vehicle: saline
[12] = dose: 50.0 mg/kg/injection, schedule: Q04DX002 (ip), vehicle: saline with Tween-80
[13] = dose: 100.0 mg/kg/injection, schedule: Q04DX002 (ip), vehicle: saline with Tween-80
[14] = dose: 400.0 mg/kg/injection, schedule: Q04DX003 (ip), vehicle: Klucel (hydroxypropylcellulose) (HPC)
[15] = dose: 100.0 mg/kg/injection, schedule: Q01DX001 (ip), vehicle: Klucel (hydroxypropylcellulose) (HPC)
[16] = dose: 200.0 mg/kg/injection, schedule: Q01DX001 (ip), vehicle: Klucel (hydroxypropylcellulose) (HPC)
[17] = dose: 400.0 mg/kg/injection, schedule: Q01DX001 (ip), vehicle: Klucel (hydroxypropylcellulose) (HPC)

Measured: T/C

O=NN(CCCCl)C(=O)Nc1ccc(NC(=O)N(CCCCl)N=O)cc1
inactive: dose: 12.5 mg/kg/injection, schedule: Q01DX001 (ip), vehicle: carboxymethylcellulose (CMC) 111 % of control | dose: 25.0 mg/kg/injection, schedule: Q01DX001 (ip), vehicle: carboxymethylcellulose (CMC) 109 % of control | dose: 50.0 mg/kg/injection, schedule: Q01DX001 (ip), vehicle: carboxymethylcellulose (CMC) 106 % of control | dose: 100.0 mg/kg/injection, schedule: Q01DX001 (ip), vehicle: carboxymethylcellulose (CMC) 117 % of control | dose: 200.0 mg/kg/injection, schedule: Q01DX001 (ip), vehicle: carboxymethylcellulose (CMC) 111 % of control | dose: 300.0 mg/kg/injection, schedule: Q01DX001 (ip), vehicle: carboxymethylcellulose (CMC) 111 % of control | dose: 400.0 mg/kg/injection, schedule: Q01DX001 (ip), vehicle: carboxymethylcellulose (CMC) 106 % of control | dose: 500.0 mg/kg/injection, schedule: Q01DX001 (ip), vehicle: carboxymethylcellulose (CMC) 106 % of control | dose: 600.0 mg/kg/injection, schedule: Q01DX001 (ip), vehicle: carboxymethylcellulose (CMC) 109 % of control | dose: 800.0 mg/kg/injection, schedule: Q01DX001 (ip), vehicle: carboxymethylcellulose (CMC) 112 % of control | dose: 1000.0 mg/kg/injection, schedule: Q01DX001 (ip), vehicle: carboxymethylcellulose (CMC) 114 % of control

CC/C=C(\CCC)C1(CC)C(=O)NC(=O)NC1=O
inactive: [1] 94 % of control | dose: 150.0 mg/kg/injection, schedule: Q01DX001 (ip), vehicle: saline 105 % of control

CC1CC2OC(=O)C(O)(CO)C2CC2(C)C(=O)C=CC12 (centres undefined)
inactive: dose: 25.0 mg/kg/injection, schedule: Q04DX002 (ip), vehicle: saline 102 % of control | dose: 50.0 mg/kg/injection, schedule: Q04DX002 (ip), vehicle: saline 124 % of control | [2] 120 % of control

CC(C)=CCN(CC=C(C)C)CCC(O)(Cc1ccccc1)c1ccccc1 (centres undefined)
inactive: [3] 88 % of control | [4] 109 % of control | [5] 97 % of control | [6] 90 % of control | [7] 95 % of control

CCCCCCCCC(=O)CCCC
inactive: [8] 103 % of control | [9] 100 % of control | [10] 100 % of control

CCOC1NC(C)(C)CO1 (centres undefined)
inactive: [8] 101 % of control | dose: 100.0 mg/kg/injection, schedule: Q04DX003 (ip), vehicle: saline 115 % of control | [9] 101 % of control | dose: 200.0 mg/kg/injection, schedule: Q04DX003 (ip), vehicle: saline 97 % of control | [10] 97 % of control | dose: 400.0 mg/kg/injection, schedule: Q04DX003 (ip), vehicle: saline 121 % of control

Cc1ccc(S(=O)(=O)c2ccc(C)c(N)c2)cc1N
inactive: [2] 105 % of control | dose: 200.0 mg/kg/injection, schedule: Q04DX002 (ip), vehicle: saline 99 % of control | dose: 400.0 mg/kg/injection, schedule: Q04DX002 (ip), vehicle: saline 96 % of control

CCCC(=O)OC(=O)N/C=C/NC(=O)OC(=O)CCC
inactive: dose: 100.0 mg/kg/injection, schedule: Q01DX001 (ip), vehicle: alcohol 103 % of control | dose: 200.0 mg/kg/injection, schedule: Q01DX001 (ip), vehicle: alcohol 103 % of control | dose: 400.0 mg/kg/injection, schedule: Q01DX001 (ip), vehicle: alcohol 94 % of control

CCCCC[CH2][Sn]([I])([CH2]C)[CH2]C
inactive: dose: 1.56 mg/kg/injection, schedule: Q01DX009 (ip), vehicle: saline 95 % of control | [11] 90 % of control

COCCCNC(=S)C(=S)NCCCOC
inactive: dose: 100.0 mg/kg/injection, schedule: Q04DX002 (ip), vehicle: Klucel (hydroxypropylcellulose) (HPC) 97 % of control | dose: 200.0 mg/kg/injection, schedule: Q04DX002 (ip), vehicle: Klucel (hydroxypropylcellulose) (HPC) 107 % of control

CC1CCCCN1Cc1ccccc1COC(=O)c1cccc(Cl)c1 (centres undefined)
inactive: dose: 25.0 mg/kg/injection, schedule: Q04DX002 (ip), vehicle: other 98 % of control | dose: 50.0 mg/kg/injection, schedule: Q04DX002 (ip), vehicle: other 113 % of control | [12] 91 % of control | dose: 100.0 mg/kg/injection, schedule: Q04DX002 (ip), vehicle: other 88 % of control | [13] 94 % of control and 86 % of control | dose: 400.0 mg/kg/injection, schedule: Q04DX002 (ip), vehicle: saline with Tween-80 101 % of control

CC(C)(C)C(=O)CC(=O)C(C)(C)C.CC(C)(C)C(=O)CC(=O)C(C)(C)C.CC(C)(C)C(=O)CC(=O)C(C)(C)C.CC(C)(C)C(=O)CC(=O)C(C)(C)C.[Hf]
inactive: [4] 100 % of control | [5] 97 % of control | [6] 100 % of control | [7] 97 % of control | dose: 400.0 mg/kg/injection, schedule: Q01DX009 (ip), vehicle: Klucel (hydroxypropylcellulose) (HPC) 100 % of control | [14] 100 % of control

CCCCCCC/C=N/NC(=O)c1ccccc1
inactive: [5] 105 % of control | [7] 109 % of control | [14] 98 % of control

CC(=S)c1ccccc1
inactive: dose: 50.0 mg/kg/injection, schedule: Q04DX003 (ip), vehicle: Klucel (hydroxypropylcellulose) (HPC) 102 % of control | [5] 107 % of control | [7] 92 % of control | [14] 97 % of control

O=C(O)c1cccc(NC(=O)C(F)(F)F)c1
inactive: [15] 94 % of control | [5] 102 % of control | [16] 96 % of control | [7] 108 % of control | [17] 100 % of control | [14] 103 % of control

CCCCCCC(O)C(=O)O (centres undefined)
inactive: [13] 102 % of control | dose: 200.0 mg/kg/injection, schedule: Q04DX002 (ip), vehicle: saline with Tween-80 102 % of control

CNNC(=O)C(O)C(C)(C)CO (centres undefined)
inactive: dose: 100.0 mg/kg/injection, schedule: Q01DX001 (ip), vehicle: saline 100 % of control | dose: 200.0 mg/kg/injection, schedule: Q01DX001 (ip), vehicle: saline 100 % of control | dose: 400.0 mg/kg/injection, schedule: Q01DX001 (ip), vehicle: saline 102 % of control

O=C(NO)Oc1cccc2ccccc12
inactive: dose: 25.0 mg/kg/injection, schedule: Q04DX002 (ip), vehicle: saline with Tween-80 105 % of control | [12] 119 % of control | [13] 89 % of control

C/C=C/C[P+](c1ccccc1)(c1ccccc1)c1ccccc1
inactive: [11] 98 % of control | dose: 6.25 mg/kg/injection, schedule: Q01DX009 (ip), vehicle: saline 110 % of control | dose: 12.5 mg/kg/injection, schedule: Q01DX009 (ip), vehicle: saline with Tween-80 106 % of control | dose: 12.5 mg/kg/injection, schedule: Q01DX009 (ip), vehicle: saline 98 % of control | dose: 15.0 mg/kg/injection, schedule: Q01DX001 (ip), vehicle: saline 101 % of control | dose: 30.0 mg/kg/injection, schedule: Q01DX001 (ip), vehicle: saline 114 % of control

CS(=O)(=O)n1c(CBr)nc2ccccc21
inactive: dose: 100.0 mg/kg/injection, schedule: Q04DX003 (ip), vehicle: saline sonified 103 % of control | dose: 200.0 mg/kg/injection, schedule: Q04DX003 (ip), vehicle: saline sonified 88 % of control

O=C(CBr)NCC(S)c1ccc(Cl)cc1 (centres undefined)
inactive: [3] 97 % of control | [4] 95 % of control | [5] 93 % of control | [7] 88 % of control | [14] 102 % of control

O=C(Nc1ccc(C(=O)Nc2cccc(C3=NCCN3)c2)cc1)c1ccc(C2=NCCN2)cc1
inactive: dose: 1.88 mg/kg/injection, schedule: Q01DX Z (ip), vehicle: saline 89 % of control | dose: 3.75 mg/kg/injection, schedule: Q01DX Z (ip), vehicle: saline 104 % of control | dose: 7.5 mg/kg/injection, schedule: Q01DX Z (ip), vehicle: saline 102 % of control | dose: 15.0 mg/kg/injection, schedule: Q01DX Z (ip), vehicle: saline 124 % of control

CC(C)N(CCSc1ncnc2nc[nH]c12)C(C)C
inactive: [1] 96 % of control

CCCCCCCCCCCSCCCCCCCCSCCCCCCCCCCC
inactive: [15] 87 % of control | [16] 92 % of control | [17] 91 % of control
